Measured values: ChEMBL document CHEMBL5576083, “Structure-Based Design and Synthesis of Covalent Inhibitors for Deubiquitinase and Acetyltransferase ChlaDUB1 of Chlamydia trachomatis” (J Med Chem, 2024)
≈ marks a conversion by molar mass, not a printed value. Calls of active or inactive are those of the source. No cut-off for these calls is given here.

What was measured:
[1] = target: T1, Ubiquitin carboxyl-terminal hydrolase isozyme L3 (Homo sapiens) (UniProt P15374); assay: Inhibition of GST-tagged human UCHL3 using Ub-Rh110Gly as fluorogenic substrate at 40 uM preincubated for 1 hr followed by substrate addition by plate reader analysis
T1 sequence (whole entry): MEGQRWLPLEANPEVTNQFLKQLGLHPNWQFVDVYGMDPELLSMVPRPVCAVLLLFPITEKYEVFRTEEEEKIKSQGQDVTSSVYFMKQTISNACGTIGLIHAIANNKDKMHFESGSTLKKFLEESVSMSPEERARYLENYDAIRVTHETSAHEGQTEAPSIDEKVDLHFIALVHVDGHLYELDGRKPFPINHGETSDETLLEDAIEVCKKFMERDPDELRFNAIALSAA

[2] = target: Ubiquitin carboxyl-terminal hydrolase isozyme L1 (Homo sapiens) (UniProt P09936); assay: Inhibition of 6His-tagged human UCHL1 using Ub-Rh110Gly as fluorogenic substrate at 40 uM preincubated for 1 hr followed by substrate addition by plate reader analysis
Chain of Ubiquitin carboxyl-terminal hydrolase isozyme L1 (Homo sapiens) (P09936 whole entry, looked up, the tested form may be a part): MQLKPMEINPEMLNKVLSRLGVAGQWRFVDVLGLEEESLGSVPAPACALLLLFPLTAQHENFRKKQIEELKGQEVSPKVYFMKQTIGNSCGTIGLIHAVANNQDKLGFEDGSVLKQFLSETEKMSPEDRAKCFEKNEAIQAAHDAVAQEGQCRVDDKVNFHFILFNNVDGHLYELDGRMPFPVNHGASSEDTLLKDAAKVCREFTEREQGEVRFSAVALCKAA

Chlamydia trachomatis [3] = assay: Inhibition of C-terminal 6His-tagged Chlamydia trachomatis DUB1 (130 to 401 residues) expressed in Escherichia coli Rosetta 2 (DE3) cells using Ub-Rh110Gly as fluorogenic substrate at 40 uM preincubated for 1 hr followed by substrate addition by plate reader analysis
Chlamydia trachomatis [4] = assay: Antimicrobial activity against Chlamydia trachomatis serovar L2 infected in human HeLa cells assessed as reduction in inclusion area at 3.13 ug/ml measured after 24 hrs of post-infection by microscopic analysis; format: functional; conditions: dose 3.13 µg/ml
Chlamydia trachomatis [5] = assay: Antimicrobial activity against Chlamydia trachomatis serovar L2 infected in human HeLa cells assessed as reduction in inclusion circumference at 3.13 ug/ml measured after 24 hrs of post-infection by microscopic analysis (reference value: 31.72 micrometer); format: functional; conditions: dose 3.13 µg/ml
Chlamydia trachomatis [6] = assay: Antimicrobial activity against Chlamydia trachomatis serovar L2 infected in human HeLa cells assessed as reduction in microbial progeny at 3.13 ug/ml measured after 48 hrs of post-infection by immunofluorescence analysis; format: functional; design: scale not given: the % may be the effect or the level left; conditions: dose 3.13 µg/ml
[7] = Solubility of compound in PBS incubated overnight by shake-flask based HPLC analysis; format: physicochemical

N#Cc1ncc(C(=O)NCc2ccc(C(=O)NC34CC5CC(CC(C5)C3)C4)cc2)cn1
inhibition [1]: inactive
inhibition [2]: Active
inhibition (Chlamydia trachomatis [3]): Active
Activity (Chlamydia trachomatis [4]): 49.99 um2
Activity (Chlamydia trachomatis [5]): 27.26 um
Activity (Chlamydia trachomatis [6]): 11%
solubility thermodynamic [7]: 308 µM (≈ 128 µg/mL)
